# Values of other authors in article PMC11999338, “Factor XI localization in human deep venous thrombus and function of activated factor XI on venous thrombus formation and hemostasis” (Research and Practice in Thrombosis and Haemostasis, 2025).
# Where two headings read alike, the source gives them in different places.
# Columns and labels:
# [1] = design: method as in PMID 33450079; details: phase I, approximately 14 days in the fed state in healthy individuals; cited from earlier work
# [2] = tested on: inferior vena cava thrombus; design: method as in PMID 21614454; details: rabbits, i.v. administration; cited from earlier work
# VTE = details: cited from earlier work
# [3] = patients with atrial fibrillation; asundexian 50 mg, once daily; cited from earlier work
# venous thrombus = tested on: venous thrombus; design: method as in PMID 23925504; details: mice, cited from earlier work
# [4] = patients after knee arthroplasty, phase II
compound,measurement,setting,value
Nc1ccc(-c2nc([C@H]3CCc4cc(-c5cc(Cl)ccc5-n5cnnn5)cc(=O)n43)c(F)[nH]2)c(F)n1 (stereo in doubt) [ONO-7684],safety and tolerability,[1],showed safety and tolerability
CC(C)(C)NC(=O)N1CCN(C(=O)N2C(=O)[C@H](CCCN=C(N)N)[C@H]2C(=O)O)CC1 [BMS-262084],silk thread-induced thrombus in the inferior vena cava,[2],reduced
COc1ccc(-n2nc(C(N)=O)c3c2C(=O)N(c2ccc(N4CCCCC4=O)cc2)CC3)cc1 [apixaban],major or clinically relevant nonmajor bleeding rate,VTE; [4],~2%
same,bleeding rate,[3],2.4%
enoxaparin,major or clinically relevant nonmajor bleeding rate,VTE; [4],~5.9%
same,venous thrombus formation,venous thrombus; ferric chloride-induced,strongly inhibited
same,bleeding time,venous thrombus; tail cut,prolonged
osocimab: human monoclonal anti-FXI antibody,major or clinically relevant nonmajor bleeding rate,"VTE; human, in vivo",approximately 4.7%
same,incidence of VTE at 10 to 13 days,"VTE; single infusion, compared with enoxaparin, patients after knee arthroplasty",noninferiority
